# Earlier results, collected in patent publication US5122608A, “Method for the preparation of substituted and unsubstituted 2,3-pyridine and quinolinedicarboxylic acids” (priority 1990, dated 1992).
# Details: ionization constant; representative mineral and organic acids
row,SMILES,pKa
1,O=C(O)C(Cl)(Cl)Cl [Trichloroacetic],0.5
2,CCc1ccc(S(=O)(=O)O)cc1 [p-Ethylbenzene sulfonic],0.9
